# Test results as given in ChEMBL document CHEMBL4393685, “Synthesis and evaluation of pyrimidoindole analogs in umbilical cord blood ex vivo expansion” (Eur J Med Chem, 2019).
# pEC50: −log10 of the molar value.
# Legend:
# Type in all cases: functional
# [1] = Stimulation of ex vivo expansion of human CD34+ cells assessed as CD34+CD38- level at 0.01 to 1 uM incubated for 7 days supplemented with 50% fresh medium containing cytokines every other day by flow cytometry (reference value: 19.10 +/- 0.35%)
# [2] = Stimulation of ex vivo expansion of human CD34+ cells assessed as CD34+CD38- level incubated for 7 days supplemented with 50% fresh medium containing cytokines every other day by flow cytometry; conditions: for pEC50: Homo sapiens, 168 h, read-out: EC50
# [3] = Stimulation of ex vivo expansion of human CD34+ cells assessed as CD34+/CD38- level at 0.01 to 1 uM incubated for 7 days supplemented with 50% fresh medium containing cytokines every other day by flow cytometry relative to control
# [4] = Stimulation of ex vivo expansion of human CD34+ cells assessed as CD34postive phenotypic levels after 7 days by carboxyfluorescein succinimidyl ester dye based assay
# [5] = Ex vivo expansion of human CD34+ cells assessed as increase in CD34+ cell level after 5 to 7 days by […]
SMILES,Activity [1] [%],pEC50 [2],fold change (FC) [3],EC50 [2],Activity [4] [%],pEC50 [5]
Cc1cc(Cl)ccc1Nc1nc(Cc2ccccc2)nc2[nH]c3ccc(-c4nnn(C)n4)cc3c12,30.36,7.72,1.59,–,–,–
CN(C)c1nc(Cc2ccccc2)nc2[nH]c3cc(-c4nnn(C)n4)ccc3c12,15.91,–,0.83,Nd(Toxic),–,–
CNC(=O)c1ccc(Nc2nc(Cc3ccccc3)nc3[nH]c4ccc(-c5nnn(C)n5)cc4c23)cc1,21.83,–,1.14,Nd(Toxic),–,–
Cc1cc(Cl)ccc1Nc1nc(Cc2ccccc2)nc2[nH]c3cc(-c4nnn(C)n4)ccc3c12,15.37,–,0.8,Nd(Toxic),–,–
Cn1nnc(-c2ccc3[nH]c4nc(Cc5ccccc5)nc(N5CCOCC5)c4c3c2)n1,17.32,6.75,0.91,–,–,–
Cn1nnc(-c2ccc3[nH]c4nc(Cc5ccccc5)nc(NCc5ccccc5)c4c3c2)n1,23.92,–,1.25,Nd(Toxic),–,–
Cn1nnc(-c2ccc3[nH]c4nc(Cc5ccccc5)nc(Nc5ccc(F)c(Cl)c5)c4c3c2)n1,20.65,–,1.08,Nd(Toxic),–,–
C#Cc1cccc(Nc2nc(Cc3ccccc3)nc3[nH]c4cc(-c5nnn(C)n5)ccc4c23)c1,16.98,–,0.89,Nd(Toxic),–,–
Cn1nnc(-c2ccc3[nH]c4nc(Cc5ccccc5)nc(NCCO)c4c3c2)n1,18.99,–,0.99,Nd(Toxic),–,–
Cn1nnc(-c2ccc3[nH]c4nc(Cc5ccccc5)nc(NCCc5ccc(O)cc5)c4c3c2)n1,20.65,–,1.08,Nd(Toxic),–,–
COc1ccc(Nc2nc(Cc3ccccc3)nc3[nH]c4ccc(-c5nnn(C)n5)cc4c23)cc1,19.34,–,1.01,Nd(Toxic),–,–
COc1ccc(CCNc2nc(Cc3ccccc3)nc3[nH]c4cc(-c5nnn(C)n5)ccc4c23)cc1,14.15,–,0.74,Nd(Toxic),–,–
Cn1nnc(-c2ccc3[nH]c4nc(Cc5ccccc5)nc(N[C@H]5CC[C@H](N)CC5)c4c3c2)n1,18.72,–,0.98,Nd(Toxic),–,–
Cn1nnc(-c2ccc3c(c2)[nH]c2nc(Cc4ccccc4)nc(NC4CCOCC4)c23)n1,30.87,6.01,1.62,–,–,–
Cn1nnc(-c2ccc3[nH]c4nc(Cc5ccccc5)nc(NCCNC(=O)c5ccc6ccccc6n5)c4c3c2)n1,20.89,–,1.09,Nd(Toxic),–,–
Cn1nnc(-c2ccc3[nH]c4nc(Cc5ccccc5)nc(N5CCNCC5)c4c3c2)n1,24.69,6.80,1.29,–,–,–
COc1ccc(CCNc2nc(Cc3ccccc3)nc3[nH]c4ccc(-c5nnn(C)n5)cc4c23)cc1OC,23.63,7.19,1.24,–,–,–
CC(O)CNc1nc(Cc2ccccc2)nc2[nH]c3ccc(-c4nnn(C)n4)cc3c12 (stereo not given),31.2,6.78,1.63,–,–,–
Cn1nnc(-c2ccc3[nH]c4nc(Cc5ccccc5)nc(N5CCC(CO)CC5)c4c3c2)n1,20.29,6.45,1.06,–,–,–

SMILES,Activity [1] [%],pEC50 [2],fold change (FC) [3],EC50 [2],Activity [4] [%],pEC50 [5]
Cn1nnc(-c2ccc3c(c2)[nH]c2nc(Cc4ccccc4)nc(NCCc4ccc(O)cc4)c23)n1,18.2,–,0.95,Nd(Toxic),–,–
Cn1nnc(-c2ccc3[nH]c4nc(Cc5ccccc5)nc(NCCN(Cc5ccccn5)Cc5ccccn5)c4c3c2)n1,24.23,7.58,1.27,–,–,–
COc1cc2c(cc1OC)CN(CCNc1nc(Cc3ccccc3)nc3[nH]c4ccc(-c5nnn(C)n5)cc4c13)CC2,21.93,7.52,1.27,–,–,–
Cn1nnc(-c2ccc3[nH]c4nc(Cc5ccccc5)nc(Nc5ccccc5)c4c3c2)n1,18.02,–,0.94,Nd(Toxic),–,–
Cn1nnc(-c2ccc3[nH]c4nc(Cc5ccccc5)nc(NCCc5c[nH]c6ccccc56)c4c3c2)n1,21.72,7.56,1.14,–,–,–
Cc1ccc(Sc2nc(Cc3ccccc3)nc3[nH]c4ccc(-c5nnn(C)n5)cc4c23)cc1,25.53,–,1.34,Nd(Toxic),–,–
Cn1nnc(-c2ccc3c(c2)[nH]c2nc(Cc4ccccc4)nc(N[C@H]4CC[C@H](O)CC4)c23)n1,50.15,6.32,2.63,–,–,–
COc1ccc(CCNc2nc(Cc3ccccc3)nc3[nH]c4cc(-c5nnn(C)n5)ccc4c23)cc1OC,37.07,–,1.94,Nd(Toxic),–,–
Cn1nnc(-c2ccc3[nH]c4nc(Cc5ccccc5)nc(N[C@H]5CC[C@H](O)CC5)c4c3c2)n1,17.9,–,0.94,Nd(Toxic),–,–
Cn1nnc(-c2ccc3[nH]c4nc(Cc5ccccc5)nc(N5CCCC(CO)C5)c4c3c2)n1 (stereo not given),22.2,7.23,1.16,–,–,–
Cn1nnc(-c2ccc3[nH]c4nc(Cc5ccccc5)nc(NCCNC(=O)OC(C)(C)C)c4c3c2)n1,16.11,–,0.84,Nd(Toxic),–,–
Cn1nnc(-c2ccc3c(c2)[nH]c2nc(Cc4ccccc4)nc(NCCc4c[nH]c5ccccc45)c23)n1,19.73,–,1.03,Nd(Toxic),–,–
CC(C)n1cnc2c(NCCc3ccc(O)cc3)nc(-c3csc4ccccc34)nc21,–,–,–,–,61,6.92
COc1ccc(CCNc2nc(Cc3ccccc3)nc3[nH]c4ccc(-c5nnn(C)n5)cc4c23)cc1,21.96,–,1.15,Nd(Toxic),–,–
Cn1nnc(-c2ccc3[nH]c4nc(Cc5ccccc5)nc(Nc5ccc(N)cc5)c4c3c2)n1,22.01,–,1.15,Nd(Toxic),–,–
C#Cc1cccc(Nc2nc(Cc3ccccc3)nc3[nH]c4ccc(-c5nnn(C)n5)cc4c23)c1,25.99,7.25,1.36,–,–,–
Cn1nnc(-c2ccc3[nH]c4nc(Cc5ccccc5)nc(Nc5cccc(Br)c5)c4c3c2)n1,22.63,–,1.19,Nd(Toxic),–,–
Cn1nnc(-c2ccc3c(c2)[nH]c2nc(Cc4ccccc4)nc(Nc4ccc(F)c(Cl)c4)c23)n1,15.79,–,0.83,Nd(Toxic),–,–
